Laboratory results published in patent publication US8609695B2, “Methods of treating and/or suppressing insulin resistance” (Endorecherche, Inc., priority 1999, dated 2013).

Tests used:
[1] = tested on: ovariectomized female rats; assay: 34-week treatment with ethynyl estradiol, EM-652.HCl, Raloxifene and DHEA, body fat (Example 7); format: in vivo, rat; details: OVX rats, 34 weeks; for Fat %: DEXA; for Fat % / Left retroperitoneal adipose tissue / Right retroperitoneal adipose tissue: EE2 0.1, Raloxifene 1, EM-652.HCl 1 mg/kg oral, DHEA 80 mg/kg topical
Protocol: The objective of this study was to assess the effect of a combined treatment with EM-652.HCl, and DHEA on body fat and body weight parameters in ovariectomized rats. For this purpose, ovariectomized rats received daily administration of EM-652.HCl (1 mg/kg), and DHEA (80 mg/kg) alone or in combination, for 34 weeks. EM-652.HCl was administered orally while DHEA was applied topically on dorsal skin. One group of animals was orally treated with 17-ethynylestradiol (0.1 mg/kg) and Raloxifene (EM-1105; 1 mg/kg) for comparison.
Ten to twelve week-old female Sprague-Dawley rats (Crl:CD(SD)Br) weighing approximately 235-250 g at start of treatment were used. Eighty rats were randomly distributed between 7 groups of 11 to 12 animals per group as follows: 1) Intact control; 2) OVX control; 3) OVX+EE2 (0.1 mg/kg); 4) OVX+raloxifene (1 mg/kg); 5) OVX+EM-652.HCl (1 mg/kg); 6) OVX+DHEA (80 mg/kg); 7) OVX+EM-652.HCl+DHEA. On day 1 of the study, the animals of the appropriate groups were bilaterally ovariectomized (OVX) under isoflurane anesthesia. EM-652.HCl, raloxifene and EE2 (Steraloids) were administered once daily by oral gavage as suspension in 0.4% methylcellulose (0.5 ml/rat) for 34 weeks while DHEA was applied topically once daily on dorsal skin as a solution in 50% ethanol-50% propylene glycol (0.5 ml/rat) for the same time period. Approximately 24 hours after the last dosing, overnight fasted animals were killed by exsanguination at the abdominal aorta under isoflurane anesthesia. Left and right retroperitoneal adipose tissues were collected and weighed.
After 34 weeks of treatment, individual rats under anesthesia with isoflurane had their whole body skeleton scanned using dual energy x-ray absorptiometry (DEXA; QDR 4500A, Hologic, Waltham, Mass.) and a Regional High Resolution Scan software. The body composition (including fat percentage) was determined.
Data were expressed as the means±SEM.

intact female rats = assay: 6-month treatment, fat accumulation in intact female rats receiving or not LHRH-A (Example 5); format: in vivo, Rattus norvegicus; set-up: FAT (%): dose or concentration left out as unconfirmed; details: 6 months; for FAT (%): DEXA, once daily; for increment of the percentage of body fat under LHRH-A: concomitant with LHRH-A
Protocol: The objective of this study is to determine the effect on fat of treatment with EM-652.HCl and dehydroepiandrosterone (DHEA) in intact female rats receiving or not a luteinizing hormone releasing hormone agonist (LHRH-A, LHRH ethylamide diacetate). For this purpose, intact female rats, treated or not with LHRH-A (2 μg/rat), received daily administration of EM-652.HCl (2.5 mg/kg) and DHEA (100 mg/kg), alone or in combination, for 6 months. EM-652.HCl was administered orally, DHEA was applied topically while LHRH-A was injected subcutaneously. All treatments were administered once daily.
One hundred twenty rats were separated into 8 groups of 15 animals for conduct of the study outlined below:
The LHRH-A is available in solution at a concentration of 1.0 mg/ml. We diluted this concentrated solution (in order to obtain a final concentration of 0.004 mg/ml) by using the following vehicle: 0.3% Sodium Chloride and 0.25% Sodium Phosphate monobasic, monohydrate in water. The sodium hydroxide (aqueous) was used to adjust the pH between 5.6-6.2.
Dosing suspensions/solutions were prepared every two weeks according to the most recent body weight (group mean) except for the LHRH-A solution. For EM-652.HCl administered orally, the vehicle (0.4% methylcellulose) was added to the tested compound, previously weighed into a glass bottle, at least 48 hours prior to the first dosing day. To ensure the homogeneity of dosing suspension, it was stirred at least 48 hours at 2 to 8 C. Dosing suspension was kept at 2 to 8 C. For DHEA solution applied topically, the ethanol was added to DHEA and the mix were agitated until dissolution of DHEA. Then, the polypropylene glycol was added and the solution agitated until homogeneity. Dosing solution was kept at 2 to 8 C. For LHRH-A solution injected subcutaneously, a dilution of the concentrated solution using the appropriate vehicle was prepared every month. Dosing solution was kept at 2 to 8 C.
The administration of tested compounds or vehicle was given from on Study Day 1 of the protocol. The tested compounds were given as suspension in 0.4% methylcellulose by oral gavage (0.5 ml/gavage/rat) once daily or were applied topically in 50% ethanol-50% propylene glycol (0.5 ml/application/rat) once daily. Rats from groups 5 to 8 received also the LHRH-A once daily by subcutaneous injection (0.5 ml/injection/rat). Rats not receiving a tested compound orally and/or topically received the appropriate vehicle alone.
Body composition was measured on whole skeleton of animal under Isoflurane-induced anesthesia using dual energy x-ray absorptiometry (DEXA; QDR 4500A, Hologic) during the acclimation period and after 6 months of treatment.

aged Sprague-Dawley rats = details: reduced from 600, without affecting food intake; cited from earlier work

## CC1=C(c2ccc(O)cc2)[C@H](c2ccc(OCCN3CCCCC3)cc2)Oc2cc(O)ccc21.Cl [EM-652.HCl, (S)-(+)-7-hydroxy-3-(4′-hydroxyphenyl)-4-methyl-2-(4″-(2′″-piperidino-ethoxy)phenyl)-2H-1-benxopyran hydrochloride]
[1]
  increment of body fat and retroperitoneal adipose tissue by ovariectomy: prevented
  Fat %: 27.7 ± 1.8%
  Left retroperitoneal adipose tissue: 2.19 ± 0.28 g
  Right retroperitoneal adipose tissue: 2.07 ± 0.18 g
Intact female rats
  FAT (%): 19.1 ± 1.4%
  increment of the percentage of body fat under LHRH-A: 35%

## C[C@]12CC[C@H](O)CC1=CC[C@@H]1[C@@H]2CC[C@]2(C)C(=O)CC[C@@H]12 [DHEA, dehydroepiandrosterone]
[1]
  increment of body fat and retroperitoneal adipose tissue by ovariectomy: prevented
  Fat %: 26.8 ± 2.3%
  Left retroperitoneal adipose tissue: 1.98 ± 0.17 g
  Right retroperitoneal adipose tissue: 2.16 ± 0.25 g
Intact female rats
  FAT (%): 20.2 ± 2.3%
  increment of the percentage of body fat under LHRH-A: 19%
Aged Sprague-Dawley rats
  body weight: 550 g
